Reference: patent publication US6620796B1, “Combinatorial library synthesis and pharmaceutically active compounds produced thereby” (Micrologix Biotech Inc., priority 1999, dated 2003)
Where two headings read alike, the source gives them in different places.

How the values were obtained:
Type in all cases: cell-based
[1] = Toxicity analysis by neutral red dye uptake in 2.2.15 cells; settings: human, neutral red dye uptake
Method: (§1) Cells for toxicity analyses were cultured and treated with four concentrations of the test compound. Uptake of neutral red dye was used to determine the relative level of toxicity 24 hours following the last treatment. The absorbance of internalized dye at 510 nm (A510 ) was used for the quantitative analysis. The percentage of dye uptake in the control (untreated) cell cultures was 100±3.

2.2.15 cells = experiment: as above
Method: as §1

hepatits B virus (HBV) = experiment: Inhibition of HBV: extracellular virion HBV DNA in 2.2.15 cell cultures; settings: for HBV Virion DNA Levels at indicated Drug Concentration: untreated control 114±16 pg/ml
Method: Briefly, confluent 2.2.15 cell cultures infected with an HBV strain were treated with 9 consecutive daily doses of four concentrations of test compound. Extracellular virion HBV DNA levels were followed 24 hours after the last treatment. The level of HBV virion DNA in the 24 control (untreated) cultures in these experiments was 114±16 pg/ml culture medium.

[2] = HBV replication, 2.2.15 cells, 9 consecutive daily doses, virion DNA 24 hours after last treatment, read-out: EC50
[3] = HBV replication, 2.2.15 cells, 9 consecutive daily doses, virion DNA 24 hours after last treatment, read-out: EC90

| SMILES | CC50 [1] [µM] | Neutral Red Dye Uptake at Indicated Drug Concentration (2.2.15 cells; 10 μM) | Neutral Red Dye Uptake at Indicated Drug Concentration (2.2.15 cells; 30 μM) | Neutral Red Dye Uptake at Indicated Drug Concentration (2.2.15 cells; 100 μM) | Neutral Red Dye Uptake at Indicated Drug Concentration (2.2.15 cells; 300 μM) | HBV Virion DNA Levels at indicated Drug Concentration (hepatits B virus (HBV); 0.01 μM, 2.2.15 cells) [pg/ml culture] | HBV Virion DNA Levels at indicated Drug Concentration (hepatits B virus (HBV); 0.1 μM, 2.2.15 cells) [pg/ml culture] | HBV Virion DNA Levels at indicated Drug Concentration (hepatits B virus (HBV); 1.0 μM, 2.2.15 cells) [pg/ml culture] | HBV Virion DNA Levels at indicated Drug Concentration (hepatits B virus (HBV); 10 μM, 2.2.15 cells) [pg/ml culture] | EC50 (hepatits B virus (HBV); 24 h) [µM] | EC90 (hepatits B virus (HBV); 24 h) [µM] | Selectivity Index (CC50/EC90) (hepatits B virus (HBV); HBV replication, 2.2.15 cells) | EC50 (hepatits B virus (HBV); [2]) [µM] | EC90 (hepatits B virus (HBV); [3]) [µM] |
| --- | --- | --- | --- | --- | --- | --- | --- | --- | --- | --- | --- | --- | --- | --- |
| C=C(C)CC/C=C/COP(=O)(S)OC[C@H]1O[C@@H](n2cnc3c(N)ncnc32)C[C@@H]1O (stereo partly drawn) [Nucleoside W198-10] | > 300 | 100 ± 1 % of control | 102 ± 2 % of control | 99 ± 1 % of control | 98 ± 1 % of control | 127 ± 10 | 121 ± 10 | 139 ± 10 | 46 ± 2 | 7.7 ± 0.9 | 24 ± 0.8 | >13 | – | – |
| C/C=C(/COP(=O)(S)OC[C@H]1O[C@@H](n2cnc3c(N)ncnc32)C[C@@H]1O)c1ccccc1 (stereo partly drawn) [Nucleoside W198-21] | > 300 | 99 ± 3 % of control | 99 ± 1 % of control | 100 ± 1 % of control | 100 ± 2 % of control | 137 ± 14 | 121 ± 13 | 117 ± 12 | 35 ± 4 | – | – | >16 | 5.3 ± 0.6 | 19 ± 2.1 |
| Nc1ncnc2c1ncn2[C@H]1C[C@H](O)[C@@H](COP(=O)(S)OCc2ccc3ccccc3c2)O1 (stereo partly drawn) [Nucleoside W198-22] | > 300 | 99 ± 2 % of control | 101 ± 3 % of control | 102 ± 2 % of control | 103 ± 2 % of control | 129 ± 13 | 122 ± 13 | 152 ± 11 | 59 ± 2 | – | – | >9.4 | 10 ± 1.1 | 32 ± 3.2 |
| C=C(C)[C@@H]1CC=C(COP(=O)(S)OC[C@H]2O[C@@H](n3cnc4c(N)ncnc43)C[C@@H]2O)CC1 (stereo partly drawn) [Nucleoside W198-24] | > 300 | 100 ± 1 % of control | 102 ± 2 % of control | 103 ± 1 % of control | 102 ± 1 % of control | 140 ± 15 | 133 ± 12 | 149 ± 25 | 62 ± 3 | – | – | >7.7 | 12 ± 1.2 | 39 ± 4.1 |
